Reference: PMC6858451, “Rhesus Theta Defensin 1 Promotes Long Term Survival in Systemic Candidiasis by Host Directed Mechanisms” (Scientific Reports, 2019)
Values after ≈ are worked out from the molar mass of the structure shown. Bridge positions count the residues as written; N and C are the ends. Peptide text beside a SMILES is read from it.

Assays:
[1] = RTD-1 tolerability/toxicity in naive mice; assay type: in vivo, BALB/c mice
Protocol: RTD-1 tolerability/toxicity was evaluated by i.p. dosing of naÏve BALB/c mice with RTD-1 at 5 mg/kg RTD-1 daily for 7 days, 20 mg/kg every other day for 10 days, and once at 50 mg/kg.

[2] = test system: C. albicans 53264 biofilms; experiment: Biofilm XTT metabolic assay; assay type: cell-based; settings: pre-adhesion, 2 h adherent and 24 h mature biofilms
Protocol: The antifungal activities of RTD-1, caspofungin and fluconazole were evaluated against biofilms of C. albicans SC5314 and 53264 essentially as described by Pierce et al.[67]. Briefly, biofilms established for 0 h (preadhesion), 2 h (adherent), or 24 h (mature) were developed by adding 1 × 10^5 yeast cells in 50 or 100 µl of RPMI-1640 to wells of flat-bottom 96-well microtiter plates (Costar, Corning, NY). Fifty or 100 µl aliquots of serial 2-fold dilutions of peptide or antifungal drugs were added to wells in triplicate and incubated for 24 h or 48 h prior to analysis of biofilm metabolic activities. Concentrations of reagents used were as follows: RTD-1 - 0.09 – 100 µg/ml (0.05–48 µM), Fluco – 1–250 µg/ml (3.3–816.3 µM); Caspo- 0.003–8 µg/ml ([…]–7.3 µM). Analysis of the effect of each agent on Candida biofilms was performed using an XTT colorimetric assay. One hundred µl of 1 µM XTT/menadione added to each biofilm well, plates were incubated in the dark for 3 h at 37 °C, and 80 µl of supernatant was transferred to a new 96-well flat-bottom microtiter plate (Greiner Bio-one, Monroe, NC). Absorbance was measured at 490 nm on a SpectraMax® i3x (Molecular Devices). Readings were plotted as average of triplicates after subtracting the corresponding values for negative controls (XTT/menadione only).

[3] = RTD-1 plasma pharmacokinetics
Protocol: RTD-1 plasma levels were also analyzed 60 or 240 min after additional daily 5 mg/kg i.p. doses administered up to 6 days.
Single dose PK of RTD-1 was evaluated by quantifying plasma peptide concentrations at intervals following 5 mg/kg bolus injections administered i.v. and i.p. to CD-1 mice. At indicated intervals, plasma was prepared from EDTA-anticoagulated blood collected aseptically by terminal cardiac puncture. Plasma was diluted 1:10 or 1:20 into 5% formic/5% acetonitrile. RTD-1 plasma concentrations were determined by reverse-phase liquid chromatography (XBridge phenyl 3.5 µm column, Waters) on an Acquity H-Class UPLC (Waters) with tandem electrospray mass spectroscopy on a Xevo TQ-S running MassLynx V4.1 (Waters). Quantitative mass spectroscopy was performed by multiple-reaction monitoring transition 417.38 > 517.14, with area under the curve determined by TargetLynx (Waters). Pharmacokinetic modeling of intravenous RTD-1 concentration-time data was performed with ADAPT (version 5) software using the naïve pooled data approach. One- and two-compartment models were evaluated. Model selection was based on the Akaike information criterion (AIC) and the Bayesian information criterion (BIC) scores, the likelihood ratio test (LRT), and goodness-of-fit plots. […] Area under the curve (AUC24) was calculated by taking the average of RTD-1 concentrations at each time point and applying the linear trapezoidal method. Bioavailability (F) for i.p. injection was determined using the ratio of AUCs from i.p. and i.v.

[4] = test system: C. albicans SC5314, 43001 and 53264; experiment: MIC/MFC, summary statements over the three strains; assay type: cell-based
Protocol: (§1) C. albicans strains were tested against RTD-1, fluconazole, and caspofungin in microdilution broth in accordance with Clinical and Laboratory Standards Institute (CLSI) document M27-A2 with the exception that 25 mM MOPS was used in place of 165 mM MOPS, as described previously. Overnight cultures were harvested by centrifugation, washed twice with Ca^2+ and Mg^2+-free PBS, pH 7.2, and suspended in test medium (RPMI 1640 medium, 25 mM MOPS, 2 mM L-glutamine) at 10^4 CFU/ml[62]. Incubations were conducted in flat bottom, 96-well microtiter plates (Greiner bio-one, Monroe, NC) containing 0.2 ml test medium per well. Duplicate 0.1 ml aliquots of serial two-fold dilutions of peptides and antifungal drugs were dispensed into wells, each of which was inoculated with 0.1 ml of fungal cell suspension containing 1 × 10^3 CFU. Plates were incubated at 30 °C for 48 hours after which A600 was determined using a SpectraMax M5e plate reader.
Minimal fungicidal concentration (MFC) was determined by plating, on YPD plates, 10 µl from wells in MIC assay without cell growth and the first well with measurable turbidity as described[63]–[66] and corresponding aliquots from the no-agent controls. Under MIC incubation conditions, no filamentation occurred allowing for accurate CFU counts after plating on YPD plates which were incubated for 24 h at 30 °C. […]

C. albicans 53264 = experiment: MIC/MFC, broth microdilution (modified CLSI M27-A2); assay type: cell-based
Protocol: as §1
(§2) Minimal fungicidal concentration (MFC) was determined by plating, on YPD plates, 10 µl from wells in MIC assay without cell growth and the first well with measurable turbidity as described[63]–[66] and corresponding aliquots from the no-agent controls. […] MFC is reported as the lowest concentration of peptide or antifungal drug that killed ≥99% of the input organisms.
(§3) MICs and MFCs of RTD-1 were also performed in the presence of 50% mouse serum. Serum was prepared from blood collected by cardiac puncture from BALB/c mice. After coagulation at room temperature, serum was collected by centrifugation (200 g for 10 min followed by 23,000 g for 15 min), and diluted with an equal volume of yeast inoculum in MIC test medium described above.

C. albicans SC5314 = experiment: as above; assay type: cell-based; settings: Candida albicans
Protocol: as §1, §2, §3

[5] = 5 mg/kg i.v., two-compartment model, mean

In the case of `CC[C@H](C)[C@@H]1NC(=O)[C@@H]2CSSC[C@H](NC(=O)[C@H](CCCNC(=N)N)NC(=O)[C@@H]3CSSC[C@H](NC1=O)C(=O)N[C@@H]([C@@H](C)O)C(=O)N[C@@H](CCCNC(=N)N)C(=O)NCC(=O)N[C@@H](Cc1ccccc1)C(=O)N3)C(=O)N[C@@H](CC(C)C)C(=O)N[C@H]1CSSC[C@H](NC(=O)[C@H](C(C)C)NC(=O)CNC(=O)[C@H](CCCNC(=N)N)NC(=O)[C@H](CCCNC(=N)N)NC1=O)C(=O)N[C@@H](CCCNC(=N)N)C(=O)N2` [RTD-1, Rhesus theta (θ) defensin-1] (cyclo(GFCRCLCRRGVCRCICTR); disulfide 3-16, 5-14, 7-12 (inferred); ring closure inferred), the tolerability ([1]; i.p. 5 mg/kg daily for 7 days, 20 mg/kg every other day for 10 days, once 50 mg/kg, observation at least 14 days) is reported as “tolerated RTD-1 dosing at all levels”, the toxicity ([1]; summary statement (Results)) is reported as “non-toxic” and the “biofilm inhibition (XTT)” value [2] is reported as “inhibited biofilm formation”. For the same compound, the “CLd, distributional clearance” value [3, 5] was 3.248 mL/h, the “K10, elimination rate constant from the central compartment” value [3, 5] was 0.9719 h⁻¹ and the “T1/2-λ1, distribution half-life” value [3, 5] was 0.5676 h. The “Vc, central volume of distribution” value [3, 5] was 14.58 mL, the “Vp, peripheral volume” value [3, 5] was 24.88 mL and the “λ1, distribution rate constant” value [3, 5] was 1.221 h⁻¹. For the same compound, the “λ2, terminal rate constant” value [3, 5] was 0.1039 h⁻¹, the accumulation in plasma ([3]; daily 5 mg/kg i.p. doses up to 6 days, levels 60 or 240 min after dose) was “did not accumulate in plasma” and the Cmax ([3]; mouse, in vivo, ip, 5 mg/kg) was 670 ng/mL. It also gave a Tmax ([3]; mouse, in vivo, ip, 5 mg/kg) of 4 h, a bioavailability ([3]; mouse, in vivo, ip, 5 mg/kg) of 63.4% and a clearance ([3]; mouse, in vivo, iv, 5 mg/kg) of 0.236 mL/min. The half-life ([3]; mouse, in vivo, iv, 5 mg/kg) was 6.67 h, the “MFCs as multiple of the MICs” value ([4]; RPMI) was 1–2 × the MICs and the “antifungal activity against blastospores in 50% mouse serum” value ([4]; peptide concentrations up to 100 µg/ml) was “inactive”.
In the case of `CC[C@H](C)C[C@H](C)CCCCCCCCC(=O)N[C@H]1C[C@@H](O)[C@@H](NCCN)NC(=O)[C@@H]2[C@@H](O)CCN2C(=O)[C@H]([C@H](O)CCN)NC(=O)[C@H]([C@H](O)[C@@H](O)c2ccc(O)cc2)NC(=O)[C@@H]2C[C@@H](O)CN2C(=O)[C@H]([C@@H](C)O)NC1=O` [Caspo, caspofungin], the MIC (C. albicans 53264; Candida albicans, 53264, RPMI 1640, 25 mM MOPS, 2 mM L-glutamine, 1 × 10^3 CFU/well, 30 °C, 48 h, A600, complete inhibition of growth, duplicate, read-out: MIC) is reported as > 8 µg/mL, the MFC (C. albicans 53264; Candida albicans, 53264, RPMI, plating of MIC wells on YPD, ≥99% killing of input inoculum) is reported as > 8 µg/mL and the “resistance relative to drug sensitive SC5314” value (C. albicans 53264; strain 53264 vs SC5314, RPMI) is reported as > 133 fold. The MIC (C. albicans SC5314; RPMI 1640, 25 mM MOPS, 2 mM L-glutamine, 1 × 10^3 CFU/well, 30 °C, 48 h, A600, complete inhibition of growth, duplicate) was 0.06 µg/mL (≈ 0.0549 µM) and the MFC (C. albicans SC5314; RPMI, plating of MIC wells on YPD, ≥99% killing of input inoculum) was 0.25 µg/mL (≈ 0.229 µM).
